Results from patent US4749704A, “Cyclopenta[d]pyrimidine derivatives and use as antidepressants” (Sankyo Company Limited, priority 1985, dated 1988).

Experiments:
[1] = test system: male rats of the F-344 strain; assay: Acute Toxicity Test (single oral dose, 7 days observation); type: in vivo, rat (F-344 strain)
Protocol: The test animals used were male rats of the F-344 strain, each weighing from 150 to 170 g. One group of animals was fed normally, whilst another group was starved for 24 hours before administration of the test compound. To each animal was administered orally a single dose of the test compound in the amount shown in the following Table; the animals were then placed under observation for 7 days after administration. The results are reported in Table as "Mortality", where the numerator indicates the number of deaths in the observation period and the denominator indicates the number of animals tested with the particular test compound at the particular dose.

[2] = test system: reserpine-induced ptosis; assay: Test for Anti-reserpine Activity (inhibition of reserpine-induced ptosis); type: in vivo, male mice of the ddy strain; conditions: mice, oral, reserpine 2 mg/kg s.c., ptosis at 90, 120 and 180 min
Protocol: The test animals used were male mice of the ddy strain, each weighing 23-25 g. Each compound was tested on a group of five such mice. Each test compound was employed in the form of a solution or suspension in a physiological saline solution containing 0.3% w/v carboxymethylcellulose. The test employed was a partial modification of the method of Rubin et al. [J. Pharmacol. Exptl. Therap., 120, 125 (1957)].
2 mg/kg of reserpine were injected subcutaneously into each mouse and, immediately after the injection, the solution or suspension of the test compound was given orally in a dose of 5 mg/kg, 10 mg/kg or 25 mg/kg, as shown in the following Table. The animals were observed 90 minutes, 120 minutes and 180 minutes after administration to evaluate the inhibition of ptosis. At each observation, each mouse was assigned from 0 to 3 points corresponding to the degree of ptosis, as follows:
0 points: eyes completely open;
1 point: eyes about one third closed;
2 points: eyes about two thirds closed;
3 points: eyes completely closed.
For each mouse, the number of points from all three observations were added together, and the percentage inhibition of reserpine-induced ptosis (Ri) was calculated from the following formula:
Po =total number of points from three observations of an animal to which reserpine alone was administered; and
Pt =total number of points from three observations of an animal to which reserpine and the test compound were administered.

[3] = test system: monoamine oxidase; assay: Toxicity to the Liver (inhibition of monoamine oxidase in the rat liver); type: biochemical; conditions: estimated from inhibition of monoamine oxidase in the rat liver
[4] = background statement; cited from earlier work

| SMILES | Mortality (deaths/animals tested) ([1]; fed rats, single oral dose 200 mg) | Mortality (deaths/animals tested) ([1]; starved (24 hours) rats, single oral dose 200 mg) | Ri % (percentage inhibition of reserpine-induced ptosis) ([2]; dose 25 mg (25 mg/kg)) [%] | toxicity to the liver relative to the prior art compound (Compound A) [3] | Mortality (deaths/animals tested) ([1]; fed rats, single oral dose 800 mg) | Mortality (deaths/animals tested) ([1]; starved (24 hours) rats, single oral dose 1500 mg) | Ri % (percentage inhibition of reserpine-induced ptosis) ([2]; dose 5 mg (5 mg/kg)) [%] | Ri % (percentage inhibition of reserpine-induced ptosis) ([2]; dose 10 mg (10 mg/kg)) [%] | side-effect activities [4] |
| --- | --- | --- | --- | --- | --- | --- | --- | --- | --- |
| N#Cc1ccc(Nc2ncnc3c2CCC3)cc1 [Compound A, 4-(4-cyanoanilino)-6,7-dihydro-5H-cyclopenta[d]pyrimidine, reference compound] | 1/5 | 3/5 | 85.0 |  |  |  |  |  |  |
| N#Cc1ccc(Nc2ncnc3c2CCC3O)cc1 (stereo not shown) [Compound No. 31, 4-(4-Cyanoanilino)-6,7-dihydro-7-hydroxy-5H-cyclopenta[d]pyrimidine] |  |  | 85.7 | about half that of the prior art compound | 0/5 | 0/5 | 50 | 71.4 |  |
| CN(C)CCCN1c2ccccc2CCc2ccccc21 [Imipramine] |  |  |  |  |  |  |  |  | exhibits antihistaminic and anticholinergic activities |
